The values below come from US20230043678A1, “USE OF 5-METHYLTETRAHYDROFOLATE” (priority 2019, published 2023).

Data set [1] concerns congenital heart defects in offspring. As to conditions: cited from earlier work.
A further data set relates to fetal rat heart. Put plainly: Effect of high-dose folic acid on fetal rat heart, histopathology (Example 8). It counts as in vivo, SD rats. The note with it: for Development delay / Malformation cases / Malformation rate / Sparse myocardial trabeculae / Ventricular defects/septal defects: fetal rats. Here is the method: 28 each of female and male adult healthy SD rats, weighing about 200-250 g, were purchased from SPF (Beijing) biotechnology co., LTD. After all animals were purchased, general physiological indicators, body weight and feeding of the animals were observed. The animals were adaptively fed for one week. […] The animals were fed day and night in natural lighting, and at a room temperature of 18-26° C. and a relative humidity of 40%-70%.
The obtained 16 pregnant mice were randomly divided into 4 groups with 4 rats in each group according to body weight: a normal group, a high-dose folic acid group, a middle-dose folic acid group and a low-dose folic acid group. The high-dose folic acid (36.44 mg/kg) group, the middle-dose folic acid (18.22 mg/kg) group, the low-dose folic acid (9.11 mg/kg) group and a blank control group were separately set. The pregnant mice were intragastrically administrated with a 1 ml/100 g solution. The pregnant mice were given pure water in the normal group. The pregnant mice in the other groups started to be administrated on the 2nd day after grouping once a day for 21 consecutive days. The pregnant mice in each group freely ate and drunk. After the female rats were administrated for 7 days, male and female rats were mated in a cage at a ratio of 1:1 overnight, a vaginal plug was checked the next morning, a day when the vaginal plug was found was regarded as day 0 of pregnancy, the pregnant mice were separately fed and administrated for 21 consecutive days, and a fetus was obtained by cesarean section.
Routine histopathologic paraffin sample preparation, serial section (a thickness of 5 μm) and HE staining were conducted. Sample preparation: routine histopathologic paraffin sample sections were prepared and each sample was 1 paraffin block; and section: each numbered sample had 20 sections. A starting point of mounting was when the paraffin block was sliced, there were ventricular mounting slices and 4 consecutive tissue points were mounted on each glass slide on average. HE staining: there were 20 glass slides for each sample and every other 1 slide was taken for HE staining, a total of 10 slides. Observation and analysis: Leica panoramic image acquisition and comparative analysis were conducted. Fetal rat hearts were dissected and sliced for observation, and the results were as follows.

[2] abbreviates: folic acid 9.11 mg/kg intragastric.
Setting [3] is: folic acid 18.22 mg/kg intragastric.
Setting [4] is: folic acid 36.44 mg/kg intragastric.

With `Nc1nc2ncc(CNc3ccc(C(=O)N[C@@H](CCC(=O)O)C(=O)O)cc3)nc2c(=O)[nH]1` [FA, pteroylglutamic acid], the “reduction of risk of CHD” value in data set [1] (folic acid supplementation, hospital case-control studies in Guangdong, Hubei, Fujian and Shanxi) is reported as 65%. Also, in data set [1] (women taking folic acid, case-control study, north of the Netherlands), the “lower risk of giving birth to infants with heart defects” value is on record as “approximately 20%”. In the data set on fetal rat heart (setting [2]), this compound gave a Development delay of 1, a Malformation cases of 3, a Malformation rate of 10.7% and a Sparse myocardial trabeculae of 1. This compound also registered a Ventricular defects/septal defects with fetal rat heart (setting [2]) of 3. In addition, in the data set with fetal rat heart (setting [3]), the Development delay amounted to 1, the Malformation cases was determined as 4, the Malformation rate was found to be 15.4% and the Sparse myocardial trabeculae was 2. The compound further showed a Ventricular defects/septal defects in the data set on fetal rat heart (setting [3]) of 2. In the data set on fetal rat heart (setting [4]), this compound had a Development delay of 3, a Malformation cases of 4, a Malformation rate of 25% and a Sparse myocardial trabeculae of 1. The Ventricular defects/septal defects in the data set on fetal rat heart (setting [4]) came to 4. In addition, the “litter rate of rats” value in the data set on fetal rat heart (folic acid, high dose) is listed as “reduce the litter rate under a high dose”. The “ventricular septum disappeared (number of animals)” value in the data set on fetal rat heart (high-dose folic acid group 36.44 mg/kg) stood at 1.
